Laboratory results: patent publication US12084458B2, “Substituted pyridines, pyridazines, and pyrimidines as TYK2 inhibitors” (Sudo Biosciences Limited, priority 2021, dated 2024)

How the values were obtained:
[1] = biological target: T1, JAK3 kinase domain (JH1) (Homo sapiens, UniProt P52333); experiment: HTRF-based selectivity assay, JAK3 catalytic domain; format: biochemical; details: recombinant catalytic domain, ATP 2.12 μM
T1 construct: recombinant purified His or GST-tagged catalytic domain for each enzyme; purchased Carna biosciences 08-046
T1 sequence (P52333 822-1111 limits assumed): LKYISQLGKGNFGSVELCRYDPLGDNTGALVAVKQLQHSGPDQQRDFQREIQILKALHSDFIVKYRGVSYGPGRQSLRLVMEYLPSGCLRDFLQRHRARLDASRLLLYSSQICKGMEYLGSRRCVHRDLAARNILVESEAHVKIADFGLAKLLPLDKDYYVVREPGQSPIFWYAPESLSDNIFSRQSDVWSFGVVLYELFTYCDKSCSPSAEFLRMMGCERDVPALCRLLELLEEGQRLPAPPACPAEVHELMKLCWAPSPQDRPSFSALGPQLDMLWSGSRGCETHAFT
Procedure: (§1) Example B-2: HTRF-Based Selectivity Assay
(§2) The ability of compounds to inhibit the activity of JAK1, JAK2, JAK3 and TYK2 is measured using a recombinant purified His or GST-tagged catalytic domain for each enzyme (JAK1, JAK2 and TYK2 are generated in-house; JAK3 was purchased from Carna biosciences, Cat #08-046) in an HTRF format biochemical assay. The reactions employs a commercial peptide substrate from Cisbio (Cat #62TK0PEC). The basic assay protocol is as follows: first, 2.5 μL of diluted compounds (4×) in DMSO are dispensed into a 384-well Optiplate. Next, 2.5 μL of enzyme (final concentrations for enzymes are: TYK2—700 ng/mL, JAK1—80.6 ng/mL, JAK2—2.1 ng/mL and JAK3—171.8 ng/mL) is added and incubated at RT for 5-20 min. Finally, 5 μl of mixture of 2× ATP [Final concentration 20 μM for TYK2, 21.43 μM for JAK1, 14.7 μM for JAK2 and 2.12 μM for JAK3]+2× Substrate [Final concentration 217 nM for TYK2, 454.7 nM for JAK1, 200 nM for JAK2 and 257.4 nM for JAK3] is added to 384 well Optiplate. Composition of Kinase assay buffer used in the assay is as follows: HEPES 50 mM, EGTA 1 mM, MgCl2 10 mM, DTT 2 mM, Tween-20 0.01% and water. Then the plates are shaken and then incubated at 26.5° C. for 60 min.

[2] = biological target: T2, JAK2 kinase domain (JH1) (Homo sapiens, UniProt O60674); experiment: HTRF-based selectivity assay, JAK2 catalytic domain; format: biochemical; details: recombinant catalytic domain, ATP 14.7 μM
T2 construct: recombinant purified His or GST-tagged catalytic domain for each enzyme; made in house
T2 sequence (O60674 849-1124 limits assumed): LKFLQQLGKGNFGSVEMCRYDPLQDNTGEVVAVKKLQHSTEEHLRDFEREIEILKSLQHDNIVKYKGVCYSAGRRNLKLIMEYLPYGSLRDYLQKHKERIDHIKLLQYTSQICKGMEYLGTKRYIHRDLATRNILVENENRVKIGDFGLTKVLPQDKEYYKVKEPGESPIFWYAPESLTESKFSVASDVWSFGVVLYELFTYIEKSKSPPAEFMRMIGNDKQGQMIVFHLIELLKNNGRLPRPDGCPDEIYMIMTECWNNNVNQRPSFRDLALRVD
Procedure: as §1, §2

[3] = biological target: T3, TYK2 kinase domain (JH1) (Homo sapiens, UniProt P29597); experiment: HTRF-based selectivity assay, TYK2 catalytic domain; format: biochemical; details: recombinant catalytic domain, ATP 20 μM
T3 construct: recombinant purified His or GST-tagged catalytic domain for each enzyme; made in house
T3 sequence (P29597 897-1176 limits assumed): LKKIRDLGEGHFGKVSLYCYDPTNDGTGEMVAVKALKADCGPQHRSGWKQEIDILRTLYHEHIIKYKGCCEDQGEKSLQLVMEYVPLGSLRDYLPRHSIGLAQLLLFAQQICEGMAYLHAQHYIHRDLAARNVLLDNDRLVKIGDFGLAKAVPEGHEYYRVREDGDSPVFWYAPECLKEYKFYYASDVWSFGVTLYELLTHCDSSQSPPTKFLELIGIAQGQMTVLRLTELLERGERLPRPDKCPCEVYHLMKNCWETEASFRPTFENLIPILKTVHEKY
Procedure: as §1, §2

[4] = system: HEK-Blue IFNγ reporter cells (IFNγ-stimulated STAT1 SEAP reporter); experiment: HEK-Blue IFNγ SEAP reporter assay for determining selectivity; format: cell-based; details: Homo sapiens, HEK-Blue, 50 ng/mL human recombinant IFNγ, read-out: IFN-γ (SEAP selectivity, IC50)
Summary of the method: (§3)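 Cells were plated for 20-22 h, then pretreated with serially diluted compound for 60 min. They were stimulated for 24 h with 4 ng/mL human recombinant IL-2 or 50 ng/mL human recombinant IFNγ, and SEAP induction was read with QUANTI-Blue.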

[5] = biological target: T4, JAK1 kinase domain (JH1) (Homo sapiens, UniProt P23458); experiment: HTRF-based selectivity assay, JAK1 catalytic domain; format: biochemical; details: recombinant catalytic domain, ATP 21.43 μM
T4 construct: recombinant purified His or GST-tagged catalytic domain for each enzyme; made in house
T4 sequence (P23458 875-1153 limits assumed): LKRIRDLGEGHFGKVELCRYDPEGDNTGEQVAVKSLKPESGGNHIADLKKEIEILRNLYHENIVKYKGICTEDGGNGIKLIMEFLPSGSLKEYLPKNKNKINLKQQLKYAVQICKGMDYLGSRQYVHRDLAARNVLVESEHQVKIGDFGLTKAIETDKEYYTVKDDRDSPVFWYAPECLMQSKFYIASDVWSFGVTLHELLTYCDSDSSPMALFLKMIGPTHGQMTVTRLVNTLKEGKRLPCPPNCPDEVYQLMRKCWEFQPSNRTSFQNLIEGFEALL
Procedure: as §1, §2

[6] = system: HEK-Blue IL-23 cells (IL-23-stimulated STAT3 SEAP reporter; TYK2 JH2); experiment: HEK-Blue IL-23 SEAP reporter assay for profiling TYK2 pseudokinase (JH2) inhibition; format: cell-based; details: 10 ng/mL human recombinant IL-23, SEAP reporter, read-out: IL23 (TYK2 inhibitory activity, IC50)
Summary of the method: (§4)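 SEAP read-out (QUANTI-Blue) after cytokine stimulation: IL-23 line given 10 ng/mL human IL-23 for 22-24 h; IFNα/β line given 1 ng/mL human IFNα for 16-18 h. Serially diluted compounds added 60 min before cytokine, to cells plated 20-22 h beforehand.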

[7] = system: HEK-Blue IFNα/β cells (IFNα-stimulated STAT1 SEAP reporter; TYK2 JH2); experiment: HEK-Blue IFNα/β SEAP reporter assay for profiling TYK2 pseudokinase (JH2) inhibition; format: cell-based; details: Homo sapiens, HEK-Blue, 1 ng/mL human recombinant IFNα, read-out: IFNα (TYK2 inhibitory activity, IC50)
Summary of the method: as §4

[8] = system: HEK-Blue IL-2 reporter cells (IL-2-stimulated STAT5 SEAP reporter); experiment: HEK-Blue IL-2 SEAP reporter assay for determining selectivity; format: cell-based; details: 4 ng/mL human recombinant IL-2
Summary of the method: as §3

Structure (SMILES)	IC50 [1]	IC50 [2]	IC50 [3]	IC50 [4]	IC50 [5]	IC50 [6]	IC50 [7]	IC50 [8]
[2H]C([2H])([2H])NC(=O)c1cnc(NC(=O)C2CC2)cc1Nc1cccc2c1N(C)Cc1ncnn1-2 [Compound 6, 6-(cyclopropanecarboxamido)-N-(methyl-d3)-4-((5-methyl-4,5-dihydro-[1,2,4]triazolo[1,5-a]quinoxalin-6-yl)amino)nicotinamide]	> 1 µM	> 1 µM	> 1 µM	0.3 to 1 µM	> 1 µM	< 0.03 µM	< 0.03 µM	> 1 µM
[2H]C([2H])([2H])NC(=O)c1nnc(NC(=O)C2CC2)cc1Nc1cccc2c1N(C)Cc1ncnn1-2 [Compound 7, 6-(cyclopropanecarboxamido)-N-(methyl-d3)-4-((5-methyl-4,5-dihydro-[1,2,4]triazolo[1,5-a]quinoxalin-6-yl)amino)pyridazine-3-carboxamide]	> 1 µM	> 1 µM	> 1 µM	0.03 to 0.3 µM	> 1 µM	< 0.03 µM	0.03 to 0.3 µM	> 1 µM
[2H]C([2H])([2H])NC(=O)c1nnc(NC(=O)C2CC2)cc1Nc1cccc2c1N(C([2H])([2H])[2H])Cc1nn(C)nc1-2 [Compound 48, 6-(cyclopropanecarboxamido)-N-(methyl-d3)-4-((2-methyl-5-(methyl-d3)-4,5-dihydro-2H-[1,2,3]triazolo[4,5-c]quinolin-6-yl)amino)pyridazine-3-carboxamide]	> 1 µM	> 1 µM	> 1 µM	0.03 to 0.3 µM	> 1 µM	< 0.03 µM	< 0.03 µM	0.3 to 1 µM
CNC(=O)c1nnc(NC(=O)C2CC2)cc1Nc1cccc2c1OCCn1cnnc1-2 [Compound 72, 6-(cyclopropanecarboxamido)-4-((5,6-dihydrobenzo[f][1,2,4]triazolo[4,3-d][1,4]oxazepin-8-yl)amino)-N-methylpyridazine-3-carboxamide]	0.3 to 1 µM	0.03 to 0.3 µM	> 1 µM	> 1 µM	> 1 µM	0.3 to 1 µM	> 1 µM	> 1 µM
CNC(=O)c1nnc(Nc2ccc(F)cn2)cc1Nc1cccc2c1OCCn1cnnc1-2 [Compound 73, 4-((5,6-dihydrobenzo[f][1,2,4]triazolo[4,3-d][1,4]oxazepin-8-yl)amino)-6-((5-fluoropyridin-2-yl)amino)-N-methylpyridazine-3-carboxamide]	> 1 µM	0.3 to 1 µM	> 1 µM	0.3 to 1 µM	> 1 µM	0.03 to 0.3 µM	0.3 to 1 µM	0.3 to 1 µM
CNC(=O)c1nnc(Nc2ccc(F)cn2)cc1Nc1cccc2c1N(C)CCn1cnnc1-2 [Compound 76, 6-((5-fluoropyridin-2-yl)amino)-N-methyl-4-((7-methyl-6,7-dihydro-5H-benzo[f][1,2,4]triazolo[4,3-d][1,4]diazepin-8-yl)amino)pyridazine-3-carboxamide]	0.3 to 1 µM	0.3 to 1 µM	> 1 µM	0.3 to 1 µM	> 1 µM	< 0.03 µM	0.03 to 0.3 µM	> 1 µM
CNC(=O)c1nnc(NC(=O)C2CC2)cc1Nc1cccc2c1N(C)CCn1cnnc1-2 [Compound 77, 6-(cyclopropanecarboxamido)-N-methyl-4-((7-methyl-6,7-dihydro-5H-benzo[f][1,2,4]triazolo[4,3-d][1,4]diazepin-8-yl)amino)pyridazine-3-carboxamide]	0.3 to 1 µM	0.03 to 0.3 µM	> 1 µM	0.3 to 1 µM	> 1 µM	< 0.03 µM	0.03 to 0.3 µM	> 1 µM
[2H]C([2H])([2H])NC(=O)c1cnc(Nc2ccc(F)cn2)cc1Nc1cccc2c1N(C)CCn1cnnc1-2 [Compound 79, 6-((5-fluoropyridin-2-yl)amino)-N-(methyl-d3)-4-((7-methyl-6,7-dihydro-5H-benzo[f][1,2,4]triazolo[4,3-d][1,4]diazepin-8-yl)amino)nicotinamide]	> 1 µM	> 1 µM	> 1 µM	< 0.03 µM	> 1 µM	0.03 to 0.3 µM	0.03 to 0.3 µM	< 0.03 µM
[2H]C([2H])([2H])NC(=O)c1cnc(Nc2cc(C)nc(C)n2)cc1Nc1cccc2c1N(C)CCn1cnnc1-2 [Compound 80, 6-((2,6-dimethylpyrimidin-4-yl)amino)-N-(methyl-d3)-4-((7-methyl-6,7-dihydro-5H-benzo[f][1,2,4]triazolo[4,3-d][1,4]diazepin-8-yl)amino)nicotinamide]	> 1 µM	0.03 to 0.3 µM	> 1 µM	> 1 µM	> 1 µM	0.03 to 0.3 µM	0.03 to 0.3 µM	> 1 µM
[2H]C([2H])([2H])NC(=O)c1cnc(NC(=O)C2CC2)cc1Nc1cc(F)cc2c1N(C)Cc1nc(C)nn1-2 [Compound 83, 6-(cyclopropanecarboxamido)-4-((8-fluoro-2,5-dimethyl-4,5-dihydro-[1,2,4]triazolo[1,5-a]quinoxalin-6-yl)amino)-N-(methyl-d3)nicotinamide]	> 1 µM	> 1 µM	> 1 µM	> 1 µM	> 1 µM	< 0.03 µM	0.03 to 0.3 µM	> 1 µM
[2H]C([2H])([2H])NC(=O)c1cnc(NC(=O)C2CC2)cc1Nc1nccc2c1N(C)Cc1nc(C)nn1-2 [Compound 84, 6-(cyclopropanecarboxamido)-4-((2,5-dimethyl-4,5-dihydropyrido[3,4-e][1,2,4]triazolo[1,5-a]pyrazin-6-yl)amino)-N-(methyl-d3)nicotinamide]	> 1 µM	> 1 µM	> 1 µM	> 1 µM	> 1 µM	< 0.03 µM	0.03 to 0.3 µM	> 1 µM
[2H]C([2H])([2H])NC(=O)c1nnc(NC(=O)C2CC2)cc1Nc1nccc2c1N(C)Cc1nc(C)nn1-2 [Compound 85, 6-(cyclopropanecarboxamido)-4-((2,5-dimethyl-4,5-dihydropyrido[3,4-e][1,2,4]triazolo[1,5-a]pyrazin-6-yl)amino)-N-(methyl-d3)pyridazine-3-carboxamide]	> 1 µM	> 1 µM	> 1 µM	0.03 to 0.3 µM	> 1 µM	< 0.03 µM	0.03 to 0.3 µM	> 1 µM
